According to patent publication US20250306018A1, “METHODS FOR CHARACTERIZING INTERACTIONS BETWEEN ANALYTES” (Nautilus Subsidiary, Inc., priority 2021, published 2025):

Tested on: serum proteins
Assay: Binding of fluorescently-labeled detectable probes to a single-analyte array of serum protein conjugates, confocal fluorescent microscopy
Design: species or system human
Conditions: patterned array of serum protein conjugates
Excerpt: A blood sample is collected from a human medical subject. A serum fraction containing serum proteins is purified from the blood sample via centrifugation of a whole blood sample obtained from the medical subject and collection of the resulting supernatant. The supernatant includes collected serum proteins as well as several impurities, including trace amounts of clotting factors, vitamins, cofactors, nucleic acids, triglycerides, cholesterols, electrolytes (e.g., Ca^2+, Mg^2+, Na^+, K^+, Fe^2+, etc.), trace amounts of non-human antigens (e.g, viral antigens), and trace amounts of the medical subject's prescribed pharmaceuticals. The fraction containing the extracted serum proteins is modified to incorporate a transcyclooctene (TCO) moiety at some of the amine-containing amino acid sidechain of the present proteins. Each modified serum protein is conjugated to a structured nucleic acid particle (SNAP) containing a methyltetrazine (mTz) attachment moiety via a TCO-mTz Click-type reaction to form a plurality of serum protein conjugates. Certain impurities are also conjugated to SNAPs due to cross-reactivity with functionalization reagents and/or methyltetrazine. […]
The patterned array of serum protein conjugates is characterized by cyclical binding of affinity reagents. […] Identities of serum proteins are determined for […] of addresses on the array to beyond a confidence level of 99.9%. […]

VEGF
polypeptide species bound by the detectable probe (addresses with identified serum albumin excluded): fewer polypeptide species
binding affinity of the detectable probe for bound polypeptide species (judged by repeatability of observed binding): low degree of binding affinity
